Data from patent publication US12162888B2, “Carboxamides as ubiquitin-specific protease inhibitors” (Valo Early Discovery, Inc., priority 2018, dated 2024).

target: T1, USP28 (His-tagged USP28-FL-mammalian) (Homo sapiens, UniProt Q96RU2); assay: Ubiquitin-Rhodamine 110 Assay for USP28 Activity, Example A-1(a); type: biochemical; conditions: Ubiquitin-Rhodamine 110 biochemical assay, read-out: USP28 A-1(a) IC50 range
T1 construct: Expression of USP28 (1-1077)-TEV-6*His (pTT5 vector) was carried out in Expi293f cells; made in house; host or cells: Expi293F cells (pTT5 vector)
T1 sequence (Q96RU2 1-1077): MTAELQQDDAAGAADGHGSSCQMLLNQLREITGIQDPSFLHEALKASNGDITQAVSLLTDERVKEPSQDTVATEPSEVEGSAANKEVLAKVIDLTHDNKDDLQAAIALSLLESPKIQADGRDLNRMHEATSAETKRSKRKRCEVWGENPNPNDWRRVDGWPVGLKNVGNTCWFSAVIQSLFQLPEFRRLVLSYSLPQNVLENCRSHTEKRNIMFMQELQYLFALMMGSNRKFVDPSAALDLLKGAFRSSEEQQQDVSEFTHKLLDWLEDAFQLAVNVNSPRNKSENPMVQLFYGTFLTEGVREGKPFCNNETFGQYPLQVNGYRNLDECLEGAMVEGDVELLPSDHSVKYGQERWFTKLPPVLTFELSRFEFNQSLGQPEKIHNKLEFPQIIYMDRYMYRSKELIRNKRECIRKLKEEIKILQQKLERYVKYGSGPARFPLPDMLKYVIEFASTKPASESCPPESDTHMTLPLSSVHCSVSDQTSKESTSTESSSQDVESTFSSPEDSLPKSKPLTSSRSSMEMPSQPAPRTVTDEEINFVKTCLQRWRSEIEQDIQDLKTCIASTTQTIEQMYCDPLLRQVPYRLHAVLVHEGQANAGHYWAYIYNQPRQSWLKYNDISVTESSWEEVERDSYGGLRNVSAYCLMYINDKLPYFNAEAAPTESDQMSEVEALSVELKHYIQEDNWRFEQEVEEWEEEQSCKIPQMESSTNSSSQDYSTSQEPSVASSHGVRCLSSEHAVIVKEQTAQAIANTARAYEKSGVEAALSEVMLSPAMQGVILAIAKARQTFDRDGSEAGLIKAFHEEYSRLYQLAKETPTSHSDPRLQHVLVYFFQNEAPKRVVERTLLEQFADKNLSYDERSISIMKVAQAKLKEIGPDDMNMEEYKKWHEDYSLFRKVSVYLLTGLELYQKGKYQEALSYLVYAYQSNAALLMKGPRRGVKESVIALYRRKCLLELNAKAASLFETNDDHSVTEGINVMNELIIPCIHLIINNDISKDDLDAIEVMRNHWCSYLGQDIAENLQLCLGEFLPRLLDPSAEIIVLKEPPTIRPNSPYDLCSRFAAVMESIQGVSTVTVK
Method: Example A-1(a): Biochemical Assay: Ubiquitin-Rhodamine 110 Assay for USP28 Activity
The assay was performed in a final volume of 9 μL in assay buffer containing 20 mM Tris-HCl (pH 8.0, (1M Tris-HCl, pH 8.0 solution; Corning 46-031-CM)), 3 mM BME (2-Mercaptoethanol; Sigma 63689-25ML-F), 0.03% BGG (0.22 μM filtered, Sigma, G7516-25G), and 0.01% Triton X-100 (Sigma, T9284-10L). Nanoliter quantities of 10-point, 3-fold serial dilution in DMSO was pre-dispensed into 1536 assay plates (Corning, #3724BC) for a final test concentration of 25 μM to 1.3 nM, top to lowest dose, respectively. Enzyme USP28, construct His-tagged USP28-FL-mammalian, (protein expression and purification procedure described below). Concentration and incubation times were optimized for the maximal signal-to-background while maintaining initial velocity conditions at a fixed substrate concentration. The final concentration of the enzyme in the assay was […]. Final substrate (Ub-Rh110; Ubiquitin-Rhodamine 110, UbiQ-126) concentration was 25 nM with [Ub-Rh110]<<Km. 3 μL of 2× enzyme was added to assay plates (pre-stamped with compound) preincubated with […] for 30 minutes and then 3 μL of 2× Ub-Rh110 was added to assay plates. Plates were incubated for 45 minutes at room temperature before addition of 3 μL of stop solution (final concentration of 10 mM citric acid (Sigma, 251275-500G)). Fluorescence was read on the Envision (Excitation at 485 nm and Emission at 535 nm; Perkin Elmer) or on the PheraSTAR (Excitation at 485 nm and Emission at 535 nm; BMG Labtech).
Procedure for the Protein expression and purification for construct His-tagged USP28-FL-mammalian
Expression of USP28 (1-1077)-TEV-6*His (pTT5 vector) was carried out in Expi293f cells (sequence derived from uniprot ID: Q96RU2-1). Cells were re-suspended in lysis buffer B 50 mM Bicine, pH 8.0, 20 mM NaCl, 5% glycerol, 0.1% CHAPS, 5 mM β-ME, 1 mM PMSF, 1 ug/ml Leupeptin, 1 ug/ml Pepstatin) and lysed by sonication. Insoluble material was removed by centrifugation and the supernatant was loaded onto a Ni-NTA column (GE Healthcare) equilibrated with Ni Buffer A (50 mM Bicine, pH 8.0, 20 mM NaCl, 5% glycerol, 0.1% CHAPS, 5 mM R-ME.) and washed with Ni Buffer A+20 mM imidazole until A280 reached baseline. The protein was eluted with Ni Buffer B (50 mM Bicine, pH 8.0, 20 mM NaCl, 5% glycerol, 0.1% CHAPS, 5 mM β-ME, 300 mM imidazole.). The protein was further purified using a Superdex™ 200 10/300 GL column (GE Healthcare) equilibrated with 50 mM Bicine, pH 8.0, 20 mM NaCl, 5% glycerol, 0.1% CHAPS, 5 mM β-ME. The protein was concentrated to 2.5 mg ml-1, flash-frozen in liquid N2 and stored at −80° C.
For assay formats Example A-1(a), A-1(b), and A-2, data were reported as percent inhibition compared with control wells based on the following equation: % inh=1−((FLU−AveLow)/(AveHigh−AveLow)) where FLU=measured Fluorescence, AveLow=average Fluorescence of no enzyme control (n=16), and AveHighh=average Fluorescence of DMSO control (n=16). IC50 values were determined by curve fitting of the standard 4 parameter logistic fitting algorithm included in the Activity Base software package: IDBS XE Designer Model 205. Data is fitted using the Levenburg Marquardt algorithm.

Compound | IC50 [nM]
Cc1ccc2c(N)c(C(=O)N[C@H]3CCc4nc(N5C[C@@H](N)[C@]6(C5)OCC[C@@H]6C)ccc4C3)sc2n1 [Example 511, 3-amino-N-[(6S)-2-[(4S,5S,9R)-9-amino-4-methyl-1-oxa-7-azaspiro[4.4]nonan-7-yl]-5,6,7,8-tetrahydroquinolin-6-yl]-6-methylthieno[2,3-b]pyridine-2-carboxamide] | 200 to 2000
CO[C@@H]1CN(c2ccc3c(n2)CC[C@H](NC(=O)c2sc4nc(C)cnc4c2N)C3)C[C@@H]1N [Example 491, 7-amino-N-[(6S)-2-[(3S,4R)-3-amino-4-methoxypyrrolidin-1-yl]-5,6,7,8-tetrahydroquinolin-6-yl]-3-methylthieno[2,3-b]pyrazine-6-carboxamide] | 50 to 200
CN[C@H]1CN(c2ccc3c(n2)CC[C@H](NC(=O)c2sc4nc(C)c(F)cc4c2N)C3)C[C@@H]1COC [Example 515, 3-amino-5-fluoro-N-[(6S)-2-[(3S,4R)-3-(methoxymethyl)-4-(methylamino)pyrrolidin-1-yl]-5,6,7,8-tetrahydroquinolin-6-yl]-6-methylthieno[2,3-b]pyridine-2-carboxamide] | 50 to 200
CN[C@@H]1CN(c2ccc3c(n2)CC[C@H](NC(=O)c2sc4nc(C)ccc4c2N)C3)C[C@@]12CCCCO2 [Example 503, 3-amino-6-methyl-N-[(6S)-2-[(4R,5S)-4-(methylamino)-6-oxa-2-azaspiro[4.5]decan-2-yl]-5,6,7,8-tetrahydroquinolin-6-yl]thieno[2,3-b]pyridine-2-carboxamide] | 50 to 200
CCO[C@H]1CN(c2ccc3c(n2)CC[C@H](NC(=O)c2sc4nc(C)cnc4c2N)C3)C[C@@H]1N [Example 520, 7-amino-N-[(6S)-2-[(3S,4S)-3-amino-4-ethoxypyrrolidin-1-yl]-5,6,7,8-tetrahydroquinolin-6-yl]-3-methylthieno[2,3-b]pyrazine-6-carboxamide] | 200 to 2000
CO[C@@H]1CCCN(c2ccc3c(n2)CC[C@H](NC(=O)c2sc4nc(C)ccc4c2N)C3)C[C@@H]1N [Example 495, 3-amino-N-[(6S)-2-[(3S,4R)-3-amino-4-methoxyazepan-1-yl]-5,6,7,8-tetrahydroquinolin-6-yl]-6-methylthieno[2,3-b]pyridine-2-carboxamide] | 50 to 200

same assay, conditions: biochemical IC50 range, Ubiquitin-Rhodamine 110 assay, read-out: USP28 A-1(a)

Compound | IC50 [nM]
Cc1ccc2c(N)c(C(=O)N[C@H]3COc4cc(N5C[C@H](N)C6(C5)OCCO6)ccc4C3)sc2n1 [Example 681, 3-amino-N-[(3R)-7-[(9S)-9-amino-1,4-dioxa-7-azaspiro[4.4]nonan-7-yl]-3,4-dihydro-2H-1-benzopyran-3-yl]-6-methylthieno[2,3-b]pyridine-2-carboxamide] | 1 to 50
CO[C@]12CCN[C@H]1CN(c1ccc3c(c1)OC[C@H](NC(=O)c1sc4nc(C)ccc4c1N)C3)C2 [Example 666, N-[(3R)-7-[(3aS,6aS)-3a-methoxyoctahydropyrrolo[2,3-c]pyrrol-5-yl}-3,4-dihydro-2H-1-benzopyran-3-yl]-3-amino-6-methylthicno[2,3-b]pyridine-2-carboxamide] | 1 to 50
Cc1ccc2c(N)c(C(=O)N[C@H]3COc4cc(N5CC[C@]6(CCCN6)C5)cc(F)c4C3)sc2n1 [Example 683, 3-amino-N-[(3R)-7-[(5R)-1,7-diazaspiro [4.4]nonan-7-yl]-5-fluoro-3,4-dihydro-2H-1-benzopyran-3-yl]-6-methylthieno [2,3-b]pyridine-2-carboxamide] | 1 to 50
Cc1ccc2c(N)c(C(=O)N[C@H]3COc4cc(N5C[C@H](N)[C@@]6(CCCCO6)C5)ccc4C3)sc2n1 [Example 611-1, 3-amino-N-[(3R)-7-[(4S,5R)-4-amino-6-oxa-2-azaspiro[4.5]decan-2-yl]-3,4-dihydro-2H-1-benzopyran-3-yl]-6-methylthieno[2,3-b]pyridine-2-carboxamide] | 1 to 50
CO[C@@]12CCN[C@@H]1CN(c1ccc3c(c1)OC[C@H](NC(=O)c1sc4nc(C)ccc4c1N)C3)C2 [Example 667, N-[(3R)-7-[(3aR,6aR)-3a-methoxyoctahydropyrrolo[2,3-c]pyrrol-5-yl]-3,4-dihydro-2H-1-benzopyran-3-yl]-3-amino-6-methylthieno[2,3-b]pyridine-2-carboxamide] | 1 to 50
Cc1ccc2c(N)c(C(=O)NC3COc4cc(N5CC(N)C(COC(F)(F)F)C5)ccc4C3)sc2n1 [Example 672, 3-amino-N-[(3R)-7-[(3R,4R)-3-amino-4-[(trifluoromethoxy)methyl]pyrrolidin-1-yl]-3,4-dihydro-2H-1-benzopyran-3-yl]-6-methylthicno[2,3-b]pyridine-2-carboxamide] | 50 to 200
CNc1ncc(C(=O)N[C@H]2COc3cc(N4CCNCC4)ccc3C2)c2[nH]cc(Cl)c12 [Example 675, 3-chloro-4-(methylamino)-N-[(3R)-7-(piperazin-1-yl)-3,4-dihydro-2H-1-benzopyran-3-yl]-1H-pyrrolo[3,2-c]pyridine-7-carboxamide] | 200 to 2000
CO[C@H]1CCCN(c2cc(F)c3c(c2)OC[C@H](NC(=O)c2sc4nc(C)ccc4c2N)C3)C[C@H]1N [Example 691, 3-amino-N-[(3R)-7-[(3R,4S)-3-amino-4-methoxyazepan-1-yl]-5-fluoro-3,4-dihydro-2H-1-benzopyran-3-yl]-6-methylthieno[2,3-b]pyridine-2-carboxamide] | 50 to 200
CO[C@@H]1CCCN(c2cc(F)c3c(c2)OC[C@H](NC(=O)c2sc4nc(C)ccc4c2N)C3)C[C@@H]1N [Example 692, 3-amino-N-[(3R)-7-[(3S,4R)-3-amino-4-methoxyazepan-1-yl]-5-fluoro-3,4-dihydro-2H-1-benzopyran-3-yl]-6-methylthieno[2,3-b]pyridine-2-carboxamide] | 1 to 50
CCOc1ncc(C(=O)N[C@H]2COc3cc(N4CCNCC4)ccc3C2)c2[nH]ccc12 [Example 676, 4-ethoxy-N-[(3R)-7-(piperazin-1-yl)-3,4-dihydro-2H-1-benzopyran-3-yl]-1Hpyrrolo[3,2-c]pyridine-7-carboxamide] | 200 to 2000
